Measured values reported in paper PMC4914250, “Cancer therapeutic approach based on conformational stabilization of mutant p53 protein by small peptides” (Oncotarget, 2016).

Assays:
Assay type in all cases: cell-based, human
[1] = tested on: ES2 ovarian cancer cells; assay: Crystal violet viability assay, ES2; design: key to Viability ES2: score 0- no effect-white; score 6- as or more effective than positive control- black; conditions: 48 h; for Viability ES2: score 0-6 compared to positive control; for mutp53-specific effect on cell number, ES2: ES2 (mp53^S241F) versus ES2 p53KO
Protocol: Cell extracts were added to ELISA plates coated with the indicated antibodies to allow mutp53 to react with the peptides and antibodies. αp53-HRP Ab was used for assessment of p53 levels. Numbers represent ratio of absorbance between the PAb1620 and PAb240 samples. All reads were normalized to the control […] reading of each extract. MCF7 (WTp53) and H1299-mutp53^A135V (tsp53) cells were used as positive controls for the WTp53 conformation (1620/240 ratio equals or exceeds 5:1). […] 96 well plates were coated with anti-p53 antibody, cell extracts containing p53 were reacted with oligonucleotides that contain a p53RE consensus binding site, labeled with biotin, in the presence or absence (NT) of test peptides. Streptavidin-HRP is used to quantify the amount of oligos in the well. TMB assay was performed to determine bound mutp53 levels (450nm). MCF7 and the H1299-mutp53^A135V(TS) cells serve as positive controls for WTp53. C.and D. - Bar graphs illustrating the effect of various selected peptides on mut-p53 dependent expression on cell viability. […] D, ES2 cells expressing endogenous mutp53 (blue bars) and ES2 cells knocked out for p53 by CRISPR construct (light blue bars). Cell lines were treated with selected peptides, Cis-platinum was used as positive control for cell death. 48 hours after treatment, cells were washed with PBS, and the remaining attached cells were stained with Crystal violet and washed 4 times with PBS. Stained cells were dissolved in 10% acetic acid and plates were taken for optical density measurement at […]. TEXT PRINTED IN THE PICTURE: (A) pCAP1: 0.87 | (A) pCAP2: 0.53 | (A) pCAP3: 0.59 | (A) pCAP4: 0.59 | (A) pCAP5: 0.60 | (A) pCAP6: 0.75 | (A) pCAP23: 1.06 | (A) pCAP24: 1.44 | (A) pCAP36: 1.25 | (A) pCAP47: 1.54 | (A) pCAP54: 1.54 | (A) pCAP60: 2.73 | (A) pCAP68: 2.22 | (A) pCAP83: 1.56 | (A) pCAP97: 2.45 DOUBTS OF THE COPYIST ABOUT THIS PICTURE: Panel A: the numbers over the bars are printed very small, rotated and blurred, so 3, 5, 6, 8 and 9 cannot be told apart with certainty. All values are best readings: pCAP1 0.87, pCAP2 0.53, pCAP3 0.59, pCAP4 0.59, pCAP5 0.60, pCAP6 0.75, pCAP23 1.06, pCAP24 1.44, pCAP36 1.25, pCAP47 1.54, pCAP54 1.54, pCAP60 2.73, pCAP68 2.22, pCAP83 1.56, pCAP97 2.45 / Panel A: the picture prints no measure with the numbers over the bars, so they are given as bare numbers / Panel A: numbers are also printed over the controls, which are not substances and are left out of lines. Best readings: NT 0.60, 60° 30'' 0.48, 60° 1' 0.37, 60° 3' 0.13, 60° 10' 0.05, MCF7 3.32, H1299TS 3.25
(§1) We also performed a similar analysis on ES2 ovarian cancer cells, which express endogenous mp53^S241F, compared to ES2 cells in which p53 was stably knocked out using CRISPR/Cas9 (ES2 p53KO Figure S1F), to control for specificity for mutp53 (Figure 2D). In ES2 cells, too, some of the peptides caused a significant reduction in cell numbers, more prominent in the mutp53 expressing cells than in their p53KO counterparts. […] Overall, we performed this analysis on several different mutp53-expressing human cancer cell lines, and the results are summarized in Table S3. Based on this comprehensive picture, we reduced the number of most promising candidate lead peptides to 30. These peptides were then synthesized with an 8 arginine C-terminal tail for enhanced delivery across cell membranes (pCAPs 130-160); for clarity, peptides are referred to by their original number, with an R for poly arginine (see Table S3).
(§2) Cells were cultured in 96 wells plates with 2500-4000 cells/well. Serial dilutions of different peptides were added and the plates incubated for additional 48 h at 37°C. Then medium was removed and cell viability was determined by staining the cells with crystal violet (0.05%) in methanol/PBS (1:5, v/v), for 10 min, followed by 3 washes with PBS. 10% acetic acid was added to each well for 10 min. OD was determined at 595 nm.

[2] = tested on: MDA; assay: Crystal violet viability assay, MDA; conditions: score 0-6 compared to positive control, 48 h
From the text: as §1, §2

[3] = tested on: H23; assay: Crystal violet viability assay, H23; design: key: score 0- no effect-white; score 6- as or more effective than positive control- black; conditions: score 0-6 compared to positive control, 48 h
From the text: as §1, §2

[4] = tested on: p53 target genes in MDA231; assay: Induction of p53 target genes by qRT-PCR, MDA231; design: key: score 0- no effect-white; score 6- as or more effective than positive control- black; conditions: score 0-6 compared to positive control
Protocol: RNA was obtained using Macherey-Nagel NucleoSpin RNA II Kit on cells pellet according to the manufacturer's protocol. Aliquots of 0.4-1 μg were reverse transcribed using Bio-RT 2000 (Bio-Lab) and random hexamer primers. QRT-PCR was performed on an ABI 7300 instrument (Applied Biosystems) using SYBR Green FastMix ROX (Quanta). RT-PCR primers (All primers sequences are presented 5′ to 3′): […]

Substance	Viability ES2 [1]	Viability MDA [2]	Viability H23 [3]	PCR MDA231 [4]	mutp53-specific effect on cell number, ES2 [1]
LRCLLLLIGRVGRRRRRRRR [pCAP-24R, pCAP-24 with poly arginine tail]	3	4			
myr-RRKILFIRLMHNKH [pCAP-227, myristoylated peptide, similarity to GAS2]	5	3	3	3	
EVTFRHSVV [pCAP-1, randomly selected peptide used as inert comparison]	4				
HHPWTHHQRWS [pCAP-20]	3		4		
YRRLLIGMMWRRRRRRRRR [pCAP-68]	5	4		2	
WNHHHSTPHPAHRRRRRR [pCAP-97R, pCAP-97 with poly arginine tail]	4	4		3	
HANLHHT [pCAP-87]				4	
LRCLLLLIGRVG [pCAP-24]					mutp53-specific effect
IRGRIIRRRRRRRRR [pCAP-54R, pCAP-54 with poly arginine tail]	3	4			
IRGRIIR [pCAP-54]		4			mutp53-specific effect
LHSKTLVL [pCAP-17]	3				
IRILMFLIGCGRRRRRRRRR [pCAP-23R, pCAP-23 with poly arginine tail]	3				
IRILMFLIGCGR [pCAP-23]	3				
SFILFIRRGRLG [pCAP-60]	3			2	mutp53-specific effect
myr-PRVLPSPHTIHPSQYP [pCAP-229, myristoylated peptide, similarity to HIPK2]			3	3	
myr-RRKHNKHRPEPDSDER [pCAP-221]	6	5	6	4	
YPTQGHLR [pCAP-36]	3	4			mutp53-specific effect
myr-RRIRDPRILLLHFD [pCAP-325]	4	4	4	6	
SFILFIRRGRLGRRRRRRRRR [pCAP-60R, pCAP-60 with poly arginine tail]	3		4		
myr-RRLIVRILKLPNPPER [pCAP-242]	5	3	6	2	
WNHHHSTPHPAH [pCAP-97]	3	4		3	mutp53-specific effect
HSSHHHPVHSWN [pCAP-83]					mutp53-specific effect
